Here are results for eight compounds from PubChem BioAssay (NCI).

Among the test systems are M14 melanoma; SNB-19 CNS; SK-MEL-2 melanoma; TK-10 renal; NCI/ADR-RES ovarian; NCI-H226 lung; HCT-116 colon; OVCAR-4 ovarian; PC-3 prostate; A498 renal.
Holding throughout (assay): growth of human tumour cells (NCI), 48 h

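Method: 48-hour compound exposure of cells in 96-well plates, five concentrations, linear interpolation of endpoints. The concentration for 50% growth inhibition is given as GI50. TGI is the concentration that stops growth completely.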

For `COc1cc(C2C(C#N)=C(N)Oc3cc4c(cc32)OCO4)cc2c1OCO2` (centres undefined), the GI50 in the assay with M14 melanoma was 0.418 µM; in the assay on SNB-19 CNS it was 0.709 µM; in the assay with SK-MEL-2 melanoma, 0.525 µM; in the assay with TK-10 renal, 2.36 µM; in the assay on NCI/ADR-RES ovarian it was 0.103 µM; in the assay on NCI-H226 lung it was 0.273 µM. In addition, the GI50 in the assay with HCT-116 colon is 0.455 µM; with OVCAR-4 ovarian, 0.931 µM; in the assay with PC-3 prostate, 0.278 µM; in the assay on A498 renal it was 0.103 µM. The TGI in the assay with M14 melanoma is above 100 µM; in the assay on SNB-19 CNS, above 100 µM; with SK-MEL-2 melanoma, above 100 µM; in the assay on TK-10 renal it was above 79.8 µM; in the assay with NCI/ADR-RES ovarian, 0.553 µM; in the assay on NCI-H226 lung, 4.59 µM. Further, the TGI in the assay on HCT-116 colon, with OVCAR-4 ovarian and in the assay on PC-3 prostate was above 100 µM throughout.

For the compound `Cc1ccc(-c2cc(/C=N/O)on2)cc1`, the GI50 in the assay on M14 melanoma is 65.4 µM; with SNB-19 CNS it was above 100 µM; with SK-MEL-2 melanoma, 97.3 µM; with TK-10 renal it was 63.8 µM; with NCI/ADR-RES ovarian, 45.4 µM; in the assay with NCI-H226 lung, 36.2 µM. Also, the GI50 in the assay on HCT-116 colon is 71.4 µM; in the assay on OVCAR-4 ovarian, above 100 µM; with PC-3 prostate, 63 µM; in the assay on A498 renal it was 41.3 µM. In addition, the TGI in the assay on M14 melanoma, with SNB-19 CNS, in the assay on SK-MEL-2 melanoma, with TK-10 renal, in the assay on NCI/ADR-RES ovarian and in the assay with NCI-H226 lung was above 100 µM throughout. Further, the TGI in the assay on HCT-116 colon, in the assay on OVCAR-4 ovarian, in the assay with PC-3 prostate and in the assay on A498 renal was above 100 µM throughout.

On to `COc1ccc(NC(=O)O[C@H]2[C@H](O[C@H]3[C@@H](O)COC(O[C@H]4C[C@H]5[C@@H]6CC=C7C[C@@H](O)CC[C@]7(C)[C@H]6CC[C@]5(C)[C@H]4[C@H](C)C(=O)CCC(C)C)[C@@H]3OC(C)=O)OC[C@@H](O)[C@@H]2O)cc1` (some centres undefined), for which the GI50 was below 0.01 µM with M14 melanoma; 0.0189 µM in the assay with SNB-19 CNS; below 0.01 µM in the assay with SK-MEL-2 melanoma; 0.0966 µM in the assay on TK-10 renal; 3.78 µM with NCI/ADR-RES ovarian; 0.0725 µM in the assay on NCI-H226 lung. The GI50 is below 0.01 µM with HCT-116 colon, 0.145 µM in the assay on OVCAR-4 ovarian, below 0.01 µM in the assay with PC-3 prostate and below 0.01 µM in the assay on A498 renal. The TGI in the assay with M14 melanoma is 0.0203 µM; in the assay on SNB-19 CNS, 3.36 µM; in the assay with SK-MEL-2 melanoma, 0.192 µM; with TK-10 renal, 23.8 µM; in the assay with NCI/ADR-RES ovarian, above 100 µM; in the assay on NCI-H226 lung it was 17.3 µM. Further, the TGI in the assay on HCT-116 colon is 14.4 µM; in the assay on OVCAR-4 ovarian, above 100 µM; with PC-3 prostate it was 4.87 µM; in the assay with A498 renal, below 0.01 µM.

Turning to `O=P1(O)c2ccccc2CS(=O)(=O)Cc2ccccc21`, the TGI in the assay with M14 melanoma, with SNB-19 CNS, in the assay with SK-MEL-2 melanoma, in the assay with TK-10 renal, with NCI/ADR-RES ovarian and in the assay on NCI-H226 lung was above 100 µM in each case. Further, the TGI with HCT-116 colon, with OVCAR-4 ovarian, in the assay on PC-3 prostate and with A498 renal was above 100 µM throughout.

With `OC(c1ccccc1)c1c(-c2ccccc2)oc(-c2ccccc2)c1C(O)c1ccccc1` (centres undefined), the TGI in the assay on M14 melanoma was found to be 21.9 µM; in the assay with SNB-19 CNS it was 28.6 µM; in the assay on SK-MEL-2 melanoma, 31.5 µM; with TK-10 renal, 29 µM; with NCI/ADR-RES ovarian it was 24.9 µM; in the assay with NCI-H226 lung, 21.9 µM. In addition, the TGI in the assay on HCT-116 colon worked out at 18.3 µM; in the assay with OVCAR-4 ovarian, 7.99 µM; in the assay on PC-3 prostate, 24.1 µM; with A498 renal, 30.4 µM.

Take `C/C(=N\Nc1cccc(Cl)n1)c1ccccn1`: the GI50 with M14 melanoma is 0.737 µM; with SNB-19 CNS, 1.23 µM; in the assay with SK-MEL-2 melanoma, 2.72 µM; in the assay with TK-10 renal it was 0.7 µM; in the assay with NCI/ADR-RES ovarian, 0.441 µM; in the assay with NCI-H226 lung it was 0.978 µM. In addition, the GI50 in the assay with HCT-116 colon is 0.401 µM; in the assay on OVCAR-4 ovarian, 0.439 µM; with PC-3 prostate, 0.89 µM; in the assay with A498 renal, 1.41 µM. Further, the TGI with M14 melanoma was 14.3 µM; in the assay with SNB-19 CNS, above 100 µM; in the assay with SK-MEL-2 melanoma, above 100 µM; with TK-10 renal it was above 100 µM; with NCI/ADR-RES ovarian, 12.8 µM; in the assay with NCI-H226 lung, 6.57 µM. For the same compound, the TGI in the assay with HCT-116 colon is above 100 µM; in the assay on OVCAR-4 ovarian, above 54.7 µM; with PC-3 prostate it was above 100 µM; in the assay with A498 renal it was 4.87 µM.

On to `CC[C@H](C)[C@H](NC(=O)C12CC(NC(C)=O)(C1)C2)C(=O)N(C)[C@H](C[C@@H](OC(C)=O)c1nc(C(=O)N[C@@H](Cc2ccccc2)C[C@H](C)C(=O)OC)cs1)C(C)C`, for which the GI50 is 0.13 µM in the assay with M14 melanoma; 0.607 µM in the assay with SNB-19 CNS; 0.108 µM with SK-MEL-2 melanoma; above 4.97 µM in the assay on TK-10 renal; above 16.7 µM in the assay with NCI/ADR-RES ovarian; above 7.53 µM in the assay with NCI-H226 lung. The GI50 is 0.101 µM in the assay on HCT-116 colon, 0.885 µM in the assay with OVCAR-4 ovarian, 0.194 µM in the assay on PC-3 prostate and 0.234 µM with A498 renal. The TGI in the assay with M14 melanoma was 1.88 µM; in the assay on SNB-19 CNS it was above 16.7 µM; with SK-MEL-2 melanoma, above 16.7 µM; in the assay on TK-10 renal, above 16.7 µM; in the assay on NCI/ADR-RES ovarian, above 16.7 µM; with NCI-H226 lung, above 16.7 µM. In addition, the TGI in the assay with HCT-116 colon is above 16.7 µM; in the assay with OVCAR-4 ovarian it was above 16.7 µM; with PC-3 prostate, above 16.7 µM; in the assay on A498 renal, 1.58 µM.

For `COc1ccc(-c2cncn2-c2cc(OC)c(OC)c(OC)c2)cc1F`, the GI50 with M14 melanoma is below 0.01 µM; in the assay with SNB-19 CNS, below 0.0146 µM; in the assay on SK-MEL-2 melanoma it was below 0.0172 µM; in the assay on TK-10 renal, 18.4 µM; with NCI/ADR-RES ovarian, 0.0108 µM; in the assay on NCI-H226 lung, 21.5 µM. The GI50 with HCT-116 colon was below 0.0158 µM; with OVCAR-4 ovarian, 1.19 µM; in the assay on PC-3 prostate, 0.0179 µM; in the assay on A498 renal, below 0.0495 µM. The TGI was 0.141 µM with M14 melanoma; above 100 µM in the assay with SNB-19 CNS; above 100 µM with SK-MEL-2 melanoma; above 100 µM with TK-10 renal; above 100 µM in the assay with NCI/ADR-RES ovarian; above 100 µM in the assay on NCI-H226 lung. Besides, the TGI in the assay with HCT-116 colon is 15.8 µM; in the assay with OVCAR-4 ovarian, above 100 µM; with PC-3 prostate, above 100 µM; in the assay on A498 renal it was 25 µM.
